Laboratory results: patent publication US20090048258A1, “Amide Compound” (priority 2005, published 2009)

Biological target: T1, Human DGAT1 (Homo sapiens, UniProt O75907)
T1 construct: my translation of the primer: M-G-DYKDDDD-GDRGSSRRR) (N); made in house; host or cells: Sf9 insect cells (recombinant baculovirus BAC-DGAT1, pFASTBAC1); microsome fraction
T1 sequence (O75907 1-488): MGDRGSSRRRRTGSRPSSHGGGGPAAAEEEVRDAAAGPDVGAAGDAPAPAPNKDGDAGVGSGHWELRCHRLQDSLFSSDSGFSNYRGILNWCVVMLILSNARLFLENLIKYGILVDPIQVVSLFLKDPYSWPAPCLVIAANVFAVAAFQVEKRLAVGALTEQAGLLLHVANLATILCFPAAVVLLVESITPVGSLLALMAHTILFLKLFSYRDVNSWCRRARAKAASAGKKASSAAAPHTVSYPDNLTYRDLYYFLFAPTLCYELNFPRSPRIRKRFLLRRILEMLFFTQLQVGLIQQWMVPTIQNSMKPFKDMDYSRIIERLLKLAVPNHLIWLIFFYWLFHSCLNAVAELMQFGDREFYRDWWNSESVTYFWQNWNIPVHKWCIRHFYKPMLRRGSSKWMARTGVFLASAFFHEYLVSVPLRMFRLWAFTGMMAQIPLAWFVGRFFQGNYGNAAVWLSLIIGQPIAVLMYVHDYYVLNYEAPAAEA
Assay: DGAT inhibitory activity: [14C]-triglyceride synthesis by DGAT1 high expression Sf9 microsome
Format: biochemical
Settings: Table 1, 25 μM dioleoylglycerol, 25 μM [14C]-Oleoyl-CoA, 32° C., 15 min, read-out: DGAT inhibitory activity (according to IC50)
Protocol: The primer base sequence is shown below.
The PCR reaction was conducted using a KOD-plus kit (TOYOBO). The obtained PCR product was electrophoresed on agarose gel (1%), the DNA fragment amplified by PCR was recovered from the gel, and then digested with restriction enzymes EcoRI and SpeI. […] Furthermore, using BAC-TO-BAC Baculovirus Expression System (Invitrogen), recombinant baculovirus BAC-DGAT1 was prepared.
SF9 cells were sown at 1×10^6 cells/ml on Sf-900II SEM medium (1 L, Invitrogen) containing 10% fetal calf serum (Trace), 50 mg/L gentamicin (Invitrogen) and 0.1% Pluronic F-68 (Invitrogen), and shaking culture was performed using a 2 L volume Erlenmeyer at 27° C., 100 rpm. After culturing for 24 hr, recombinant baculovirus BAC-DGAT1 (6.7 mL) was added, and the mixture was further cultured for 3 days. The culture medium was centrifuged at 2,000 rpm for 5 min to give virus-infected cells. The infected cells were washed with a phosphate buffered saline (Invitrogen), centrifuged under the same conditions, and the cells were preserved at −80° C. The cryopreserved cells were thawed in ice, suspended in buffer A (50 mM Tris buffer (30 mL, pH 7.4) containing 20% glycerol, 0.15 M NaCl) supplemented with Complete Protease Inhibitor (Boehringer), and ruptured 3 times with a Polytron homogenizer (Kinematica) at 20,000 rpm for 30 sec. The Sf9 microsome fractions were obtained by a conventional method and cryopreserved at −80° C. as a DGAT1 high expression Sf9 microsome.
As a DGAT1 reaction buffer, a solution having a composition of 100 mM Tris-HCl (pH 7.5), 250 mM sucrose, 150 mM MgCl2, 0.01% bovine serum albumin (BSA) was used. […] A mixture of 300 μL of chloroform:methanol (=1:2) was added to the reaction mixture to quench the reaction. The reaction mixture was sufficiently mixed and saline (200 μL) was added to partition the mixture between a chloroform layer (lower layer) and an aqueous layer (upper layer). The chloroform layer (50 μL) was spotted on a thin layer chromatography silica gel plate (TLC plate, Merck) and developed with a solvent (n-hexane:diethyl ether:ethyl acetate:acetic acid=74:15:15:1). The developed TLC plate was dried, contacted with a BAS imaging plate (manufactured by FUJIFILM) and measured with BAS2500 (manufactured by FUJIFILM) 16 hr later to numerically show the amount of [^14C]-triglyceride (TG amount) produced during the reaction. The inhibitory rate was calculated by the following formula:
Inhibitory rate (%)=(1−(TG amount in the case with addition of test compound−blank TG amount)/(control TG amount−blank TG amount))×100
The count of the triglyceride produced in the solution reacted without addition of the test compound was used as a “control TG amount”, and the count of the triglyceride produced in the solution reacted without addition of the test compound and DGAT1 high expression Sf9 microsome was used as a “blank TG amount”.

Row | SMILES | IC50
1 | CCOc1ccc(C(=O)NCCNC(=O)c2cc(-c3ccccc3)n(Cc3ccccc3)c2C)cc1 [Example 63, 1-benzyl-N-{2-[(4-ethoxybenzoyl)amino]ethyl}-2-methyl-5-phenyl-1H-pyrrole-3-carboxamide] | 50 to 500 nM
2 | CCOc1ccc(C(=O)NCCNC(=O)c2cc(-c3ccccc3)n(-c3ccc(OC)cc3)c2C)cc1 [Example 64, N-{2-[(4-ethoxybenzoyl)amino]ethyl}-1-(4-methoxyphenyl)-2-methyl-5-phenyl-1H-pyrrole-3-carboxamide] | 50 to 500 nM
3 | CCOc1ccc(C(=O)NCCNC(=O)c2cc(-c3ccccc3)n(-c3ccc(SC)cc3)c2C)cc1 [Example 65, N-{2-[(4-ethoxybenzoyl)amino]ethyl}-2-methyl-1-[4-(methylthio)phenyl]-5-phenyl-1H-pyrrole-3-carboxamide] | 10 to 50 nM

Same assay, conditions: Table 2, 25 μM dioleoylglycerol, 25 μM [14C]-Oleoyl-CoA, 32° C., 15 min, read-out: DGAT inhibitory activity (according to IC50)

Row | SMILES | IC50
4 | CCOc1ccc(C(=O)CCC(=O)Nc2sc(-c3ccccc3)nc2-c2ccccc2)cc1 [Example 66, 4-(4-ethoxyphenyl)-N-(2,4-diphenyl-1,3-thiazol-5-yl)-4-oxobutanamide] | 500 to 10000 nM
5 | O=C(CCC(=O)c1ccc2c(c1)OCCO2)Nc1nc(-c2ccccc2)c(Cc2ccccc2)s1 [Example 67, N-(5-benzyl-4-phenyl-1,3-thiazol-2-yl)-4-(2,3-dihydro-1,4-benzodioxin-6-yl)-4-oxobutanamide] | 50 to 500 nM
6 | O=C(CCC(=O)c1ccc2c(c1)OCCCO2)Nc1nc(-c2ccccc2)c(Cc2ccccc2)s1 [Example 68, N-(5-benzyl-4-phenyl-1,3-thiazol-2-yl)-4-(3,4-dihydro-2H-1,5-benzodioxepin-7-yl)-4-oxobutanamide] | 10 to 50 nM
7 | CCCCc1ccc(C(=O)c2sc(NC(=O)CCC(=O)c3cc(OCC)c(OCC)cc3C)nc2-c2ccccc2)cc1 [Example 69, N-[5-(4-butylbenzoyl)-4-phenyl-1,3-thiazol-2-yl]-4-(4,5-diethoxy-2-methylphenyl)-4-oxobutanamide] | 50 to 500 nM
8 | CCOc1ccc(C(=O)CCC(=O)Nc2cc(-c3ccccc3)c(Cc3ccccc3)s2)cc1Cl [Example 70, N-(5-benzyl-4-phenyl-2-thienyl)-4-(3-chloro-4-ethoxyphenyl)-4-oxobutanamide] | 50 to 500 nM
9 | COc1ccc(C(=O)CCC(=O)Nc2nc(-c3ccccc3)c(Cc3ccccc3)s2)cc1OC [Example 71, N-(5-benzyl-4-phenyl-1,3-thiazol-2-yl)-4-(3,4-dimethoxyphenyl)-4-oxobutanamide] | ≤ 10 nM
10 | CCc1ccc(C(=O)CCC(=O)Nc2nc(-c3ccccc3)c(Cc3ccccc3)s2)s1 [Example 72, N-(5-benzyl-4-phenyl-1,3-thiazol-2-yl)-4-(5-ethyl-2-thienyl)-4-oxobutanamide] | 10 to 50 nM
11 | CCOc1cc(C)c(C(=O)CCC(=O)Nc2cc(-c3ccccc3)c3cc(Cl)ccc3n2)cc1OCC [Example 73, N-(6-chloro-4-phenylquinolin-2-yl)-4-(4,5-diethoxy-2-methylphenyl)-4-oxobutanamide] | 50 to 500 nM
12 | CCOc1ccc(C(=O)CCC(=O)Nc2cc(-c3ccccc3)c3ccccc3n2)cc1OCC [Example 74, 4-(3,4-diethoxyphenyl)-4-oxo-N-(4-phenylquinolin-2-yl)butanamide] | ≤ 10 nM
13 | O=C(CCC(=O)c1ccc2c(c1)CCCC2)Nc1cc(-c2ccccc2)c2cc(Cl)ccc2n1 [Example 75, N-(6-chloro-4-phenylquinolin-2-yl)-4-oxo-4-(5,6,7,8-tetrahydronaphthalen-2-yl)butanamide] | 50 to 500 nM
14 | CCOc1ccc(C(=O)CCC(=O)Nc2cc(-c3ccc(C)cc3)c3cc(Br)ccc3n2)cc1OCC [Example 76, N-[6-bromo-4-(4-methylphenyl)quinolin-2-yl]-4-(3,4-diethoxyphenyl)-4-oxobutanamide] | 10 to 50 nM
15 | CCOC(=O)/C=C/c1ccc2nc(NC(=O)CCC(=O)c3ccc(OCC)c(OCC)c3)cc(-c3ccc(C)cc3)c2c1 [Example 77, ethyl(2E)-3-[2-{[4-(3,4-diethoxyphenyl)-4-oxobutanoyl]amino}-4-(4-methylphenyl)quinoline-6-yl]acrylate] | 10 to 50 nM
16 | CCOc1ccc(C(=O)CCC(=O)Nc2cc(-c3ccc(C)cc3)c3cc(/C=C/C(=O)OC(C)(C)C)ccc3n2)cc1OCC [Example 78, tert-butyl (2E)-3-[2-{[4-(3,4-diethoxyphenyl)-4-oxobutanoyl]amino}-4-(4-methylphenyl)quinoline-6-yl]acrylate] | 50 to 500 nM
17 | CCOc1ccc(C(=O)CCC(=O)Nc2cc(-c3ccccc3)c3ccccc3n2)cc1 [Example 79, 4-(4-ethoxyphenyl)-4-oxo-N-(4-phenylquinolin-2-yl)butanamide] | 10 to 50 nM
18 | CCOc1ccc(C(=O)CCC(=O)Nc2cc(-c3cccc(OC)c3)c3ccccc3n2)cc1OCC [Example 80, 4-(3,4-diethoxyphenyl)-N-[4-(3-methoxyphenyl)quinolin-2-yl]-4-oxobutanamide] | 10 to 50 nM
19 | CCOc1ccc(C(=O)CCC(=O)Nc2cc(-c3ccccc3)c3ccc(Br)cc3n2)cc1OCC [Example 81, N-(7-bromo-4-phenylquinolin-2-yl)-4-(3,4-diethoxyphenyl)-4-oxobutanamide] | 50 to 500 nM
20 | CCOc1ccc(C(=O)CCC(=O)Nc2cc(-c3ccccc3)c3ccc(/C=C/C(=O)OC(C)(C)C)cc3n2)cc1OCC [Example 82, tert-butyl (2E)-3-(2-{[4-(3,4-diethoxyphenyl)-4-oxobutanoyl]amino}-4-phenylquinoline-7-yl)acrylate] | 50 to 500 nM
21 | CCOc1ccc(C(=O)CCC(=O)Nc2cc(-c3ccccc3)c3ccc(/C=C/C(=O)O)cc3n2)cc1OCC [Example 83, (2E)-3-(2-{[4-(3,4-diethoxyphenyl)-4-oxobutanoyl]amino}-4-phenylquinoline-7-yl)acrylic acid] | 50 to 500 nM
22 | CCOc1ccc(C(=O)CCC(=O)Nc2cc3ccccc3c(-c3ccccc3)n2)cc1OCC [Example 84, 4-(3,4-diethoxyphenyl)-4-oxo-N-(1-phenylisoquinolin-3-yl)butanamide] | 500 to 10000 nM
23 | CCOc1ccc(C(=O)CCC(=O)Nc2cc3ccccc3c(N3CCCCC3)n2)cc1OCC [Example 85, 4-(3,4-diethoxyphenyl)-4-oxo-N-[1-(piperidin-1-yl)isoquinolin-3-yl]butanamide] | 500 to 10000 nM
24 | CCOc1ccc(C(=O)CCC(=O)Nc2cc(-c3ccccc3)c3ccc(/C=C/C#N)cc3n2)cc1OCC [Example 86, N-{7-[(E)-2-cyanovinyl]-4-phenylquinolin-2-yl}-4-(3,4-diethoxyphenyl)-4-oxobutanamide] | 10 to 50 nM
25 | CCOc1ccc(C(=O)CCC(=O)Nc2cc(-c3ccccc3)c3ccc(CCC(=O)OC(C)(C)C)cc3n2)cc1OCC [Example 87, tert-butyl 3-(2-{[4-(3,4-diethoxyphenyl)-4-oxobutanoyl]amino}-4-phenylquinoline-7-yl)propanoate] | 10 to 50 nM
26 | CCOc1ccc(C(=O)CCC(=O)Nc2nc3ccccc3c(-c3ccccc3)c2C)cc1OCC [Example 88, 4-(3,4-diethoxyphenyl)-N-(3-methyl-4-phenylquinolin-2-yl)-4-oxobutanamide] | 50 to 500 nM
27 | CCOc1ccc(C(=O)CCC(=O)Nc2cc(-c3ccccn3)c3ccccc3n2)cc1OCC [Example 89, 4-(3,4-diethoxyphenyl)-4-oxo-N-[4-(pyridin-2-yl)quinolin-2-yl]butanamide] | 50 to 500 nM
